Source: patent US20250049741A1, “COMPOSITION FOR PREVENTING OR TREATING ALZHEIMER'S DISEASE COMPRISING PHOSPHOLIPASE C ACTIVATOR AS AN ACTIVE INGREDIENT” (Korea University Research and Business Foundation, priority 2021, published 2025)

Test system: PLCβ1
Test: Western blot of PLCβ1 in rat hippocampal slices
Type: cell-based, Sprague-Dawley rats
Conditions: AβO+m-3M3FBS-treated rat hippocampal slices; similar to DMSO-treated slices
Protocol: Soluble AβO was prepared according to a previous study (BMC Biol. 2020; 18(1):7). Specifically, Aβ1-42 (Aβ) and a scrambled form of Aβ as a control peptide were purchased in powder form. Aβ and scrambled Aβ were dissolved for monomerization in 1,1,1,3,3,3-hexafluoro-2-propanol (HFIP, Sigma Aldrich, USA) at a final concentration of 1 mM, and the solution was incubated for 90 minutes. After the HFIP was evaporated, the remaining thin and clear film of Aβ or scrambled Aβ was dissolved in dimethyl sulfoxide (DMSO, Sigma Aldrich, USA) to prepare 5 mM Aβ or scrambled Aβ stocks, which were aliquoted and frozen at −20° C. Aβ or scrambled Aβ stocks were thawed and diluted to 100 μM in artificial cerebrospinal fluid (ACSF). Thereafter, Aβ or scrambled Aβ stocks were incubated for oligomerization for 18 hours. […]
Hippocampal PLCβ1 of SD rats and C57BL/6 or 5XFAD mice were prepared from homogenized hippocampi dissolved in 200 μL of RIPA buffer (Bio-Rad, USA), and were resolved on non-reducing 10% tris-glycine-sodium dodecyl sulfate-polyacrylamide gel electrophoresis (SDS-PAGE) gels (Bio-Rad, USA) using 4×Laemmli sample buffers (Bio-Rad, USA). […] Immunoreactivity was confirmed with enhanced chemiluminescence (Bio-Rad, USA) using a Fluorchem E system (ProteinSimple, USA) and analyzed with ImageJ software. […]

For `Cc1cc(C)c(S(=O)(=O)Nc2cccc(C(F)(F)F)c2)c(C)c1` [m-3M3FBS], the “PLCβ1 protein levels in AβO-treated slices” value was “completely restored”.
